Measured values reported in patent US20040208828A1, “Enantiomer-pure (4S,8S)- and (4R,8R)-4-p-nitrobenzyl-8-methyl-3,6,9-triaza-3N,6N,9N-tricarboxymethyl-1,11-undecanedioic acid and derivatives thereof, process for their production and use for the production of pharmaceutical agents” (priority 2003, published 2004).

What was measured:
[1] = McMurry et al., J. Med. Chem. (1998), 41, 3546-3549; cited from earlier work
[2] = compared to the unsubstituted DTPA; cited from earlier work
[3] = thermodynamic stability constant of the metal complex (logKY); assay type: physicochemical; settings: in vitro
Text: (§1) In this case, as was discovered, the configuration of methyl- and benzyl substituent must be present as (4S,8S) (see compound Va) or (4R,8R) (see compound Vb) to achieve the described positive effect.

[4] = competition complexation: mixture of one equivalent each of Va, VIa and Gd(III) salt; assay type: physicochemical; settings: one equivalent each of Va (R=-NO2)
Text: as §1

[5] = radiotoxicity of the metal complex in vivo; settings: compared to compound VIa
Text: as §1

[6] = complex stability / complexing properties, comparison of stereoisomers; assay type: physicochemical; settings: comparison of configurations (4S,8S)/(4R,8R) with (4S,8R)/(4R,8S)
Text: as §1

Which “in-vitro and in-vivo stability” value [1] does the source give for `O=C(O)CN(CC(=O)O)[C@H](Cc1ccc([N+](=O)[O-])cc1)CN(CC(=O)O)[C@@H]1CCCC[C@H]1N(CC(=O)O)CC(=O)O` [II] here?
Its value is “higher in-vitro and in-vivo stability than compound III”.

Which “complex stability (in words)” value [2] does the source give for `CC(CN(CC(=O)O)C[C@H](Cc1ccc([N+](=O)[O-])cc1)N(CC(=O)O)CC(=O)O)N(CC(=O)O)CC(=O)O` (stereo partly shown) [MX-DTPA] here?
The value was “increased complex stability compared to the unsubstituted DTPA”.

Which “thermodynamic stability constant logKY” value [3] does the source give for `C[C@@H](CN(CC(=O)O)C[C@H](Cc1ccc([N+](=O)[O-])cc1)N(CC(=O)O)CC(=O)O)N(CC(=O)O)CC(=O)O` [Va] here?
The value was 24.7±0.7.

And the “Gd complex formed in competition” value [4]?
Its value is “almost exclusively the Gd complex of compound Va is formed”.

And the “radiotoxicity of the metal complex” value [5]?
Its value is “reduced in vivo compared to compound VIa”.

And the “complex stability / complexing properties (in words)” value [6]?
Its value is “considerably better complexing properties than compounds VIa and VIb”.

With `C[C@H](CN(CC(=O)O)C[C@@H](Cc1ccc([N+](=O)[O-])cc1)N(CC(=O)O)CC(=O)O)N(CC(=O)O)CC(=O)O` [Vb, (R,R)-{[2-{[2-(Bis-carboxymethyl-amino)-propyl]-carboxymethyl-amino}-1-(4-nitro-benzyl)-ethyl]-carboxymethyl-amino}-acetic acid] as the compound, how does the “complex stability / complexing properties (in words)” value [6] read?
Its value is “considerably better complexing properties than compounds VIa and VIb”.
